Data as given in ChEMBL document CHEMBL1201862, “PubChem BioAssay data set” (2004).
Activity calls are given as the source filed them.

Key:
Cytochrome P450 2C9 [1] = molecular target: T1, Cytochrome P450 2C9 (Homo sapiens, UniProt P11712); conditions: Potency
Cytochrome P450 3A4 [2] = molecular target: T2, Cytochrome P450 3A4 (Homo sapiens, UniProt P08684)
Cytochrome P450 2C9 [3] = molecular target: T1, Cytochrome P450 2C9
[4] = HEp-2 cell cytotoxicity, dose response, cytotoxicity control for RSV inhibitor project, HTS (AID 2410); type: functional; conditions: human respiratory syncytial virus
Aminopeptidase N = molecular target: T3, Aminopeptidase N (Plasmodium falciparum FcB1/Columbia, UniProt O96935); assay: P. falciparum M1AAP inhibitors, biochemical, fluorogenic H-Leu-NHMec substrate, 1536-well (AID 1445); set-up: species or system Plasmodium falciparum 3D7, 3D7
T3 sequence (O96935 whole entry): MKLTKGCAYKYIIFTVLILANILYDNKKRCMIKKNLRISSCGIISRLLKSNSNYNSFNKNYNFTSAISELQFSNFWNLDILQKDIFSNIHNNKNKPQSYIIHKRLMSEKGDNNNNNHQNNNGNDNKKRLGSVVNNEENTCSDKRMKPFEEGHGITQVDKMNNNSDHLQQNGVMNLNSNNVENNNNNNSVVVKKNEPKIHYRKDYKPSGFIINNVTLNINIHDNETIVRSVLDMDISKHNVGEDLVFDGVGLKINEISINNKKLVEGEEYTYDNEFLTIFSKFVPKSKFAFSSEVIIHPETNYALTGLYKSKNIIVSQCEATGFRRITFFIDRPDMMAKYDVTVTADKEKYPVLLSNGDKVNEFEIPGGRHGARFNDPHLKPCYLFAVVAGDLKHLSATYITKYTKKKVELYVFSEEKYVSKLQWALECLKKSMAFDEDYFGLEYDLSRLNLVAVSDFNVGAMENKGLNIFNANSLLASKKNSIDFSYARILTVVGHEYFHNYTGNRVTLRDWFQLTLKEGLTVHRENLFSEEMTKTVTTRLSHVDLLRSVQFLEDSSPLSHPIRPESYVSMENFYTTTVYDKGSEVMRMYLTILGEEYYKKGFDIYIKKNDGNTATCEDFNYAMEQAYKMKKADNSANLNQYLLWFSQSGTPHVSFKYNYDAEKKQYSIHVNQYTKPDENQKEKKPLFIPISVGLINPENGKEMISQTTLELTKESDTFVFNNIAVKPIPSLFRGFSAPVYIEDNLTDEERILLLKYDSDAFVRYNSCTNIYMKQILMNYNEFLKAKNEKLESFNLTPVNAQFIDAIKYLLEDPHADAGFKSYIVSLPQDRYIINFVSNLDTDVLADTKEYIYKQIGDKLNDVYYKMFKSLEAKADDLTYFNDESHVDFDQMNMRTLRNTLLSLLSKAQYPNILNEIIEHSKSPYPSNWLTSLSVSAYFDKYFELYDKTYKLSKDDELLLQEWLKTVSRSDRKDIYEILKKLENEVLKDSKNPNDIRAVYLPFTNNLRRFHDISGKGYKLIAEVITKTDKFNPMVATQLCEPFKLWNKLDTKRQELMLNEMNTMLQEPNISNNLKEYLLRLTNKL

[5] = molecular target: Peroxisome proliferator-activated receptor gamma/Nuclear receptor coactivator 3 (Homo sapiens, UniProt P37231); type: functional;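 further: agonist potency for raising coactivator recruitment to the receptor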
[6] = molecular target: Peroxisome proliferator-activated receptor gamma/Nuclear receptor coactivator 2 (Homo sapiens, UniProt P37231); type: functional;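 further: agonist potency for raising coactivator recruitment to the receptor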
[7] = molecular target: Peroxisome proliferator-activated receptor gamma/Nuclear receptor coactivator 1 (Homo sapiens, UniProt P37231); type: functional;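 further: agonist potency as compounds enhance coactivator SRC-1 recruitment to PPARgamma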
[8] = inhibitors of intracellular T. cruzi replication, confirmation, NIH3T3 host cells, beta-gal luminescence (AID 2044); type: functional, cell-based;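 further: intracellular parasites grown in NIH/3T3 mouse fibroblasts as host cells; luminescent beta-galactosidase reporter signal from transgenic T. cruzi replicating inside host cells; inhibitors lower the luminescence signal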
[9] = cytotoxicity toward NIH3T3 fibroblasts, dose response, counter-screen, cell-based, ATP luminescence, mouse fibroblasts (AID 2010); type: functional;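 further: cells exposed to compound for about 90 hours before reading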
Cytochrome P450 2D6 = Cytochrome P450 2D6 (Homo sapiens, UniProt P10635); assay: qHTS Assay for Inhibitors and Substrates of Cytochrome P450 2D6. [Related pubchem assays: 410 ]; type: ADME; conditions: read-out: Potency
Cytochrome P450 3A4 [10] = molecular target: T2, Cytochrome P450 3A4; conditions: Potency
[11] = C. albicans growth with fluconazole, confirmation, fluorescence, retest (AID 2467); type: functional, cell-based
[12] = enhancers of respiration in Yfh1-depleted yeast, dose response, Friedreich's ataxia, plus single-dose screen (AID 1465); type: functional;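 further: yeast depleted of Yfh1p frataxin homolog grown on glycerol needing respiration; WST-1 tetrazolium dye reduction as measure of cellular dehydrogenase metabolic activity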
[13] = system: Streptococcus sp. 'group A'; assay: growth inhibition of control SK(-) GAS strain, dose response, counter-screen for streptokinase expression inhibitor project, luminescence, kanamycin, BacTiterGlo, confirmation (AID 1900); type: functional, organism-based
Streptococcus = assay: Group A Streptococcus viability loss, dose response, counter-screen for streptokinase expression inhibitor project, luminescence, BacTiterGlo (AID 1915); type: functional, organism-based;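 further: potency for reduction of bacterial viability or growth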
Streptokinase A = molecular target: T4, Streptokinase A (Streptococcus pyogenes serotype M1, UniProt P10520); assay: S. pyogenes streptokinase expression inhibitors, potency, dose response, plasminogen activation absorbance, OD405 (AID 1914); type: functional, Streptococcus pyogenes M1 GAS;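 further: secreted streptokinase activity via plasminogen activation per viability signal from cell pellet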
T4 sequence (P10520 whole entry): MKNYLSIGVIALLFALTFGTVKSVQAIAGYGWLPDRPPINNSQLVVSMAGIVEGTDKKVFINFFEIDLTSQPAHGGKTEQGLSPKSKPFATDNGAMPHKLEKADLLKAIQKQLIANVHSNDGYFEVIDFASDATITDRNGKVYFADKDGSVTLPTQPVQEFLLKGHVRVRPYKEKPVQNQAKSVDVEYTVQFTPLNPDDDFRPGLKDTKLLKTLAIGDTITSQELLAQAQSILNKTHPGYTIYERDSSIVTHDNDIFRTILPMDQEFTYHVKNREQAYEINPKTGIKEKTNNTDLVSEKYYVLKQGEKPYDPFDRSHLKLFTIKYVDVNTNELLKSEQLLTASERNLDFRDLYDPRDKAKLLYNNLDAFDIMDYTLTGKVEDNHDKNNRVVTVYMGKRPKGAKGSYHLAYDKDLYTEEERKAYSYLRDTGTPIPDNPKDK

[14] = molecular target: T5, Short transient receptor potential channel 4 (Mus musculus, UniProt Q9QUQ5); assay: mouse TRPC4 channel activators, dose response, cell-based, HEK293 TRPC4/mu-opioid, Fluo-4 calcium (AID 434937); type: functional
T5 sequence (Q9QUQ5 whole entry): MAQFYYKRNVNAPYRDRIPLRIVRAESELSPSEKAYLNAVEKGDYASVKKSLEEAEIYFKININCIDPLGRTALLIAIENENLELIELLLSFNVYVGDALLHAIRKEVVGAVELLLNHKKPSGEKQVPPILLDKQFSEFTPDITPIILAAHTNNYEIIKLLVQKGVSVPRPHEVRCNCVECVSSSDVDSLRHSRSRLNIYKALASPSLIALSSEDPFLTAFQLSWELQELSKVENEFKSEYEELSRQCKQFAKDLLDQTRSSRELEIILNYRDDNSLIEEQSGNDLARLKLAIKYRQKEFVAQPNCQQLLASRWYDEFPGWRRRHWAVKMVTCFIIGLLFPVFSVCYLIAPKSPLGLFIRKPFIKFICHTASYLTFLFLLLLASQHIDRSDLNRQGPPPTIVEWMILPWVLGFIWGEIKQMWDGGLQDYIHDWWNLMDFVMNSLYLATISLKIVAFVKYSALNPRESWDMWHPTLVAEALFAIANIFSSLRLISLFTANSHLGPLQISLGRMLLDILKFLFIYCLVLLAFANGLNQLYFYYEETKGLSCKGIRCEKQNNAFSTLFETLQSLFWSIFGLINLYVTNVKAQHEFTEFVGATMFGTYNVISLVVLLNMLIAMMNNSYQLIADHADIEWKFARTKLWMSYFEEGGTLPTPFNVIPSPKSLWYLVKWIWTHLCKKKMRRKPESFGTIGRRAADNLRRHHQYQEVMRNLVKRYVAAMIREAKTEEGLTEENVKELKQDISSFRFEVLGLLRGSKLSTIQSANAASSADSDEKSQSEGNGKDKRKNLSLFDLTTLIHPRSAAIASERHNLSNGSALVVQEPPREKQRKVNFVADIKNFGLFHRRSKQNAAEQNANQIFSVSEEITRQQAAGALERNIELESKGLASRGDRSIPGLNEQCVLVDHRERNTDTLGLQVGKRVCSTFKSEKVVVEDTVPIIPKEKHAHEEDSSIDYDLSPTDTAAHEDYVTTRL

[15] = NIH-3T3 fibroblast cytotoxicity, dose response, cytotoxicity control, cell-based, fluorescence, Alamar Blue, secondary assay (AID 2327); type: functional;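 further: NIH-3T3 mouse fibroblasts cultured with fluconazole at 8 µg/mL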
[16] = molecular target: G-protein coupled receptor 55 (Homo sapiens, UniProt Q9Y2T6); assay: GPR55 agonists via beta-arrestin recruitment, primary screen, imaging, U2OS cells, beta-arrestin-GFP redistribution (AID 1961); type: functional
Cytochrome P450 1A2 = molecular target: T6, Cytochrome P450 1A2 (Homo sapiens, UniProt P05177);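 further: PubChem cytochrome P450 panel assay, CYP1A2 panel member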
T6 sequence (P05177 whole entry): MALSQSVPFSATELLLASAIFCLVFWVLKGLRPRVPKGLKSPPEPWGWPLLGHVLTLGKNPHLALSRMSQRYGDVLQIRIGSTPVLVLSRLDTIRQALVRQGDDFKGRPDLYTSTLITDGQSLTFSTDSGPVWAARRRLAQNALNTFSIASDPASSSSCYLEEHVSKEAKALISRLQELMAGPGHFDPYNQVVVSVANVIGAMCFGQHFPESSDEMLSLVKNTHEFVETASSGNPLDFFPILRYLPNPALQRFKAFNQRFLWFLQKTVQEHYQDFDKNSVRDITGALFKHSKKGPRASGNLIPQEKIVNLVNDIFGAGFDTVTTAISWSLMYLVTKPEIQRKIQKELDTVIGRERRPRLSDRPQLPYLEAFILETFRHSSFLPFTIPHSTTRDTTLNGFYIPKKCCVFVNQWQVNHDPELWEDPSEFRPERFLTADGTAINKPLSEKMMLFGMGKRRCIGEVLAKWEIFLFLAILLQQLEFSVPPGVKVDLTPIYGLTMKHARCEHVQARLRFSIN

Large T antigen = Large T antigen (Simian virus 40, UniProt P03070); type: functional, Betapolyomavirus macacae;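 further: Confirmatory-stage PubChem screen for compounds that inhibit SV40 T antigen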
Hexokinase = molecular target: T7, Hexokinase (Trypanosoma brucei, UniProt Q38C41); assay: Confirmation assay for inhibitors of Trypanosoma brucei hexokinase 1-Analogue-first series. [Related pubchem assays (depositor defined):AID1430, AID1632, AID2516, AID2560, AID2579, AID2600, AID449725, AID492951]; type: functional
T7 sequence (Q38C41 whole entry): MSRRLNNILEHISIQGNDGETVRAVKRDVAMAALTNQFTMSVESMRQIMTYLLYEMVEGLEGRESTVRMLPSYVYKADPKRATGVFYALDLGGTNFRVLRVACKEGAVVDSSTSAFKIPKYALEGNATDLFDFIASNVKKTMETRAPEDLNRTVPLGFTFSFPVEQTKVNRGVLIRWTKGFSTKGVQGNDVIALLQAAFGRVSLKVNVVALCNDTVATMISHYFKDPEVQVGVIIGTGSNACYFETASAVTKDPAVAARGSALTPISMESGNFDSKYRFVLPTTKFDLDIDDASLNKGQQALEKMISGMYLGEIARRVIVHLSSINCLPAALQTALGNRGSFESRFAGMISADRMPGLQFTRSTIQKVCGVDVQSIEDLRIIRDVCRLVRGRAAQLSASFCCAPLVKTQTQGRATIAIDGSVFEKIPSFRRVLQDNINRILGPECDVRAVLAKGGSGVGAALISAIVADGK

Sequence of G-protein coupled receptor 55 (Q9Y2T6 whole entry): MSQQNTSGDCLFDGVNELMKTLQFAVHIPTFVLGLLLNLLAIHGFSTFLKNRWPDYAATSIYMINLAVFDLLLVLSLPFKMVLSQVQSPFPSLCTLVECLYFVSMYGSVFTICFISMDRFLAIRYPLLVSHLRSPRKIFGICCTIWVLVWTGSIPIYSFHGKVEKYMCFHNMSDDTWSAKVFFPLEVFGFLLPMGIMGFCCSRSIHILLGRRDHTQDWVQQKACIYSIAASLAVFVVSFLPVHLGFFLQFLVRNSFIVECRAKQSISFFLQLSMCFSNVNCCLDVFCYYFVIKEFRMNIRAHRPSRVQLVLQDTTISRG
T1 sequence (P11712 whole entry): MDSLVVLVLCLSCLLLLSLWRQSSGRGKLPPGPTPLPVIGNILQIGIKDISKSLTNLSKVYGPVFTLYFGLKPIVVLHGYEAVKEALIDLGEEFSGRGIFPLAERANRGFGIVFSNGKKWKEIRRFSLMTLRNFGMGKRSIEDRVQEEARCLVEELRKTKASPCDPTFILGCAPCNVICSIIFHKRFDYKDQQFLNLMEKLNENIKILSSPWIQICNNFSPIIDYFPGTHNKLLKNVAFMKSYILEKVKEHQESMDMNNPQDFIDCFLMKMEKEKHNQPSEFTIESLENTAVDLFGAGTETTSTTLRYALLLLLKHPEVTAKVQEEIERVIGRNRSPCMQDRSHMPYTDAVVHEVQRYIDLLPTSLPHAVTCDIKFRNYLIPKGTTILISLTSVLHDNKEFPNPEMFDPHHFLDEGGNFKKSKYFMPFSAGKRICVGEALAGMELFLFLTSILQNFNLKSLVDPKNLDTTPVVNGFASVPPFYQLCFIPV
T2 sequence (P08684 whole entry): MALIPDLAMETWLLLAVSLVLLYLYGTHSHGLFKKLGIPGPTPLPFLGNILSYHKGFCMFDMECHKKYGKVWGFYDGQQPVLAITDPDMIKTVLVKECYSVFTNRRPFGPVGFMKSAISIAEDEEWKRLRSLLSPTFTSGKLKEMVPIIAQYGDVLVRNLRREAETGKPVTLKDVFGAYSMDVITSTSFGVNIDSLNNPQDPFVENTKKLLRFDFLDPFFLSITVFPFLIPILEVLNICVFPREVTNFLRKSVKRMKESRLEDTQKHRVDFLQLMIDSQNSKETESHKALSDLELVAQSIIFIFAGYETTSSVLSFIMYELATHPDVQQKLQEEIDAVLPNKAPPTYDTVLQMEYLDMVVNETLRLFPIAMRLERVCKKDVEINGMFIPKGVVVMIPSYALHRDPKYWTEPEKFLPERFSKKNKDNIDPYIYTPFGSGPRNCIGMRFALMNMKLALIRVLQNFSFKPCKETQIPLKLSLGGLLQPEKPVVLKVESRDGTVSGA
Sequence of Cytochrome P450 2D6 (P10635 whole entry): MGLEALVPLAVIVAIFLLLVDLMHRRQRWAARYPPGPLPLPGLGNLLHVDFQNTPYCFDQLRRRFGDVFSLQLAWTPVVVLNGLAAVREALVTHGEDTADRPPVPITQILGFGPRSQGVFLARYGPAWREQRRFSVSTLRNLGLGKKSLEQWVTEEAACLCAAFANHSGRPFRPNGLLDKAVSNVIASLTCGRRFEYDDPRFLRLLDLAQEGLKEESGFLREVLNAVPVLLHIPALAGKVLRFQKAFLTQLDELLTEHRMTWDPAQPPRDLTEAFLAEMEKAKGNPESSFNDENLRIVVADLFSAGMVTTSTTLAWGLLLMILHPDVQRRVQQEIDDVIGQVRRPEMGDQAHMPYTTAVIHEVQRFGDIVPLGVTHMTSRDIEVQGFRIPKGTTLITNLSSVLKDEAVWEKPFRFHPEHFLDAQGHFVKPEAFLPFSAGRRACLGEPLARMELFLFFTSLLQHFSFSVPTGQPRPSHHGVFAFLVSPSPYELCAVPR
Sequence of Peroxisome proliferator-activated receptor gamma/Nuclear receptor coactivator 1 (P37231 whole entry): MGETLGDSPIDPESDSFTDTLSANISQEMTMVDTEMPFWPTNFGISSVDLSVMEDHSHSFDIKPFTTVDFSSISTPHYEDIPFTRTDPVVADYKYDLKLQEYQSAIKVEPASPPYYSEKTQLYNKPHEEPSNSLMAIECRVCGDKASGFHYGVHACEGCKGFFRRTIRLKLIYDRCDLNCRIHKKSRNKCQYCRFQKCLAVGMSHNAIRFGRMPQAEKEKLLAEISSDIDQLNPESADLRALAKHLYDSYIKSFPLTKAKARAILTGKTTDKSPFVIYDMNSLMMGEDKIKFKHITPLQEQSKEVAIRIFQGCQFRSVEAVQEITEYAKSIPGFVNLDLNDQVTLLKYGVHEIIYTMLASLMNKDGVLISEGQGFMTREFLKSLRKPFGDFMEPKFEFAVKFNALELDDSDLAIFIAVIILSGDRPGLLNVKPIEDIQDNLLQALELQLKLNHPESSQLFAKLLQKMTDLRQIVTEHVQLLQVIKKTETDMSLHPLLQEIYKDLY
Sequence of Peroxisome proliferator-activated receptor gamma/Nuclear receptor coactivator 1 (Q15788 whole entry, further chain): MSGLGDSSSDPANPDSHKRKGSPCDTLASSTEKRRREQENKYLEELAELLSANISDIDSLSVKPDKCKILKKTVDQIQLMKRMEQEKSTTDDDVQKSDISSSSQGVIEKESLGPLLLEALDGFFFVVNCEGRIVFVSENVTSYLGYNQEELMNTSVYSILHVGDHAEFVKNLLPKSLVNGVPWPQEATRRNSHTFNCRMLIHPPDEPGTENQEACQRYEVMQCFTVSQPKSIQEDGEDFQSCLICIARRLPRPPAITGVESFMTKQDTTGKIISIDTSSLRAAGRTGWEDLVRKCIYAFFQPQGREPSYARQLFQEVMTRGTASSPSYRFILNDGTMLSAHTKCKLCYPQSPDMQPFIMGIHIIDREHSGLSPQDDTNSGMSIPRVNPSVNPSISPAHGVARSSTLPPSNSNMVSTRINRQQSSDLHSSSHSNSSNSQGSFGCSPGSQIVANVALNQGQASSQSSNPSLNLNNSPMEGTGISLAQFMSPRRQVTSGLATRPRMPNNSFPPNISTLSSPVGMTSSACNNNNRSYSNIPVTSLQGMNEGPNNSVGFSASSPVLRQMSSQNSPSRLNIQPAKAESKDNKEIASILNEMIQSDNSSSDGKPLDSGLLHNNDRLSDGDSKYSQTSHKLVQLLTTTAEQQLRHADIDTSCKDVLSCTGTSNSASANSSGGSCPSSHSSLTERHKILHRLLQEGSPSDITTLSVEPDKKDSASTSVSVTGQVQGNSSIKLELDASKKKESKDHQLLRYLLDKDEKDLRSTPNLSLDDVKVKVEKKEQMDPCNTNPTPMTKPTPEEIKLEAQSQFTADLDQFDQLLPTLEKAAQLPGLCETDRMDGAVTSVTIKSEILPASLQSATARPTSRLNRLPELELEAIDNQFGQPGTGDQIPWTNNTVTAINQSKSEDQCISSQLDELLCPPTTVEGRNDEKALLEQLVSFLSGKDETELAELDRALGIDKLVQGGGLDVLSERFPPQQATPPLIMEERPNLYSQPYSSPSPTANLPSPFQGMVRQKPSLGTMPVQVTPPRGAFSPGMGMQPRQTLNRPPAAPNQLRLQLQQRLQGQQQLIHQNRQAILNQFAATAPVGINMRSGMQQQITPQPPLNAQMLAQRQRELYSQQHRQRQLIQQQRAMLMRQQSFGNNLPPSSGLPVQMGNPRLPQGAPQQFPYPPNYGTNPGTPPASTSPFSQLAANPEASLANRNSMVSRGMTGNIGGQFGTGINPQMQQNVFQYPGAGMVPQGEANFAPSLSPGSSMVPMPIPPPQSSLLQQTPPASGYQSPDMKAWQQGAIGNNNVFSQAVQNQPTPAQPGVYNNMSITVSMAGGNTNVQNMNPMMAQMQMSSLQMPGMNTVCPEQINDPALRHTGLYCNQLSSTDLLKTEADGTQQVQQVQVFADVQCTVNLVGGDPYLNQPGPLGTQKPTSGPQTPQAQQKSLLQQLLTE
Sequence of Large T antigen (P03070 whole entry): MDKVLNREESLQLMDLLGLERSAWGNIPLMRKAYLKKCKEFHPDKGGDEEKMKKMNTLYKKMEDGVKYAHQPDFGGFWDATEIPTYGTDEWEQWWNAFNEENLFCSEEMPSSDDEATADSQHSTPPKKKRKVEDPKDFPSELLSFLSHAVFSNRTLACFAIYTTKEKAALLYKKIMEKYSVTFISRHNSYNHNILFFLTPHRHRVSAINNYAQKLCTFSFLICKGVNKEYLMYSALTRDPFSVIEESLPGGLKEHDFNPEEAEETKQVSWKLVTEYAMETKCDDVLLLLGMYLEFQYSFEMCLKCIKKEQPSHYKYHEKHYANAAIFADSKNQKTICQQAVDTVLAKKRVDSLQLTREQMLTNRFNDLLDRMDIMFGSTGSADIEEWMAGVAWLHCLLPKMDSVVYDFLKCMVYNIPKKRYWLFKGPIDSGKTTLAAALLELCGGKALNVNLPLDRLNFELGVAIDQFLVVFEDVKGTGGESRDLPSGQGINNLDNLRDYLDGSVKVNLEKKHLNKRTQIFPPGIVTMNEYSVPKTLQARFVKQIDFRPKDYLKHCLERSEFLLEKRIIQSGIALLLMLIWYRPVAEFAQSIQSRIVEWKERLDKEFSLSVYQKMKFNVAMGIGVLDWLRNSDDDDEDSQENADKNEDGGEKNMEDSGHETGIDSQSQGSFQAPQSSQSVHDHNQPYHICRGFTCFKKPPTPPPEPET

CC[C@H](C)N(C)C(=O)c1cc2ccccc2c(-c2ccccc2Cl)n1
AC50 (Cytochrome P450 2C9 [1]): 15.8 µM (inconclusive) | AC50 (Cytochrome P450 3A4 [2]): 20 µM (inconclusive) | AC50 (Cytochrome P450 2C9 [3]): 31.6 µM (inconclusive)

Cn1c(SCc2cccc3ccccc23)nnc1-c1ccco1
CC50 [4]: > 50 µM (active) | IC50 (cells): 46.5 µM (active)

C/C=C/c1ccc(OCCOc2cc(C=O)ccc2OC)c(OC)c1
IC50 (Aminopeptidase N): 88.9 µM (active)

COc1ccc(C(CN=C(S)NCc2ccccc2)N2CCCC2)cc1 (stereo not given)
IC50 (cells): 24.2 µM (active)

c1ccc(-c2oc3ncnc(NCCCN4CCOCC4)c3c2-c2ccccc2)cc1
EC50 [5]: > 79.4 µM (not active) | EC50 [6]: > 79.4 µM (not active) | EC50 [7]: > 79.4 µM (not active)

COc1ccc(N2C(=O)/C(=C\NNS(=O)(=O)c3cccc([N+](=O)[O-])c3)c3ccccc3C2=O)cc1OC
EC50 [8]: 18.2 µM (active) | EC50 [9]: > 60 µM (not active) | EC50 [5]: > 79.4 µM (not active) | EC50 [6]: > 79.4 µM (not active) | EC50 [7]: > 79.4 µM (not active)

COc1ccc(/C=C/N(CCc2ccc(OC)c(OC)c2)C(=O)C(F)(F)F)cc1
AC50 (Cytochrome P450 2C9 [1]): 3.16 µM (inconclusive) | AC50 (Cytochrome P450 2D6): 7.94 µM (inconclusive)

CN(C)C(=O)c1ccc(-c2nc(N(C)C)c3ccccc3n2)cc1
AC50 (Cytochrome P450 2D6): 12.6 µM (inconclusive) | AC50 (Cytochrome P450 3A4 [10]): 1.58 µM (inconclusive)

C=CCC1C=CC(Oc2ccc(OC)cc2)C(COC(=O)c2ccc(Br)cc2)O1 (stereo not given)
AC50 (Cytochrome P450 2C9 [1]): 3.98 µM (inconclusive) | AC50 (Cytochrome P450 2D6): 6.31 µM (inconclusive)

Cc1cc(NC(=O)CSc2nc3ccsc3c(=O)n2NC(=O)c2ccccc2)no1
IC50 (Aminopeptidase N): 23.7 µM (active)

CCCCC(=O)NNC(=S)NC(=O)C(c1ccccc1)c1ccccc1
EC50 [11]: 2.15 µM (active) | EC50 [12]: > 100 µM (active) | EC50 [13]: 0.788 µM (active) | EC50 (Streptococcus): 25.1 µM (active) | EC50 (Streptokinase A): > 150 µM (not active) | EC50 [14]: 2.66 µM (active) | EC50 [15]: 19.6 µM (inconclusive)

COc1cc2c(cc1NC(=O)CSc1ccc(C)cc1)oc1ccccc12
EC50 [16]: 1.15 µM (active) | CC50 [4]: 28.4 µM (active)

CCOC(=O)c1c(N2C(=O)Nc3cc(Cl)c(Cl)cc3N2O)sc2c1CCCCC2
AC50 (Cytochrome P450 3A4 [2]): 10 µM (inconclusive) | IC50 (Aminopeptidase N): 81.7 µM (active) | AC50 (Cytochrome P450 1A2): 39.8 µM (inconclusive) | IC50 (Large T antigen): > 100 µM (active)

COc1ccc(C2=NN(c3nc(-c4ccc(CNC(C)=O)cc4)cs3)C(c3ccco3)C2)cc1 (stereo not given)
EC50 [16]: 1.04 µM (active)

Cc1ccc2c(C)c(C(=O)N3CCN(c4ccncc4)CC3)oc2c1C
CC50 [4]: 46.9 µM (active) | IC50 (cells): 23.9 µM (active)

COCc1nc(-c2cc(OC)c(OC)c(OC)c2)no1
EC50 [16]: > 32 µM (inactive)

COC(=O)c1ccc(Cl)cc1NC(=O)c1ccc(Cl)cc1
IC50 (Hexokinase): > 25 µM (inactive)
